These results are taken from US6936602B1, “Benzazepine derivatives, process for the preparation of the same and uses thereof” (Takeda Chemical Industries, Ltd., priority 1999, dated 2005).

Data set [1] addresses T1, human CCR5 (Homo sapiens, UniProt P51681).
T1 construct: expressed in transfected cells
The data set is described as follows: Evaluation of test compounds based on CCR5 antagonistic activity: inhibition of [125I]-RANTES binding to CCR5/CHO cells. The following applies: Test Compound 1 μM, 100 pM [125I]-RANTES, room temperature for 40 minutes, read-out: Inhibitory Rate (%). The protocol: Cloning of CCR5 gene was carried out by a PCR method from human spleen cDNA. With using 0.5 ng of spleen cDNA (Toyobo, QUICK-Clone cDNA) as template, PCR was performed in DNA Thermal Cycler 480 (Perkin-Elmer) (reaction conditions: 30 cycles of 95° C. for 1 minute, 60° C. for 1 minute, and 75° C. for 5 minutes) by adding each 25 pmol of primers of a primer set, • SEQ ID NO.: 1 described in Test Example (1) of WO 99/32100 [length of sequence: 34; type of sequence: nucleic acid; strandedness: single; topology: straight; kind of sequence: other nucleic acid synthetic DNA, and • SEQ ID NO.: 2 described in Test Example (1) of WO 99/32100 [length of sequence: 34; type of sequence: nucleic acid; strandedness: single; topology: straight; kind of sequence: other nucleic acid synthetic DNA which were designed referring to nucleotide sequence of CCR5 gene reported by Samson et. al. (Biochemistry, 35(11), 3362-3367 (1996)) and by using TaKaRa EX Taq (Takara Shuzo). The resultant PCR product was subjected to agarose gel electrophoresis to collect about 1.0 kb DNA fragment, which was subjected to Original TA Cloning Kit (Funakoshi) to carry out cloning of CCR5 gene. (2) Preparation of Plasmid for Expression of Human CCR5
The plasmid obtained in the above (1) was digested with restriction enzymes XbaI (Takara Shuzo) and BamHI (Takara Shuzo) and subjected to agarose gel electrophoresis to collect about 1.0 kb DNA fragment.
The DNA fragment was mixed with plasmid pcDNA3.1 (Funakoshi) for expression in animal cells, said plasmid being digested with XbaI and BamHI, and they were ligated with DNA Ligation Kit Ver.2 (Takara Shuzo). The resulting plasmid was subjected to transformation of competent cell of E. coli JM109 (Takara Shuzo) to obtain plasmid pCKR5.
CHO-K1 cells were grown in 750 ml of tissue culture flask (Becton Dickinson) using Ham's F12 medium (Nihon Pharmaceutical) containing 10% fetal calf serum (Life Tech Oriental) and taken off with 0.5 g/L trypsin-0.2 g/L EDTA (Life Tech Oriental). The cells were washed with PBS (Life Tech Oriental), centrifuged (1000 rpm, 5 minutes), and suspended in PBS. With using Gene Pulser (Bio-Rad Laboratories), DNA was introduced into the cells under the conditions shown below. That is, to the cuvette of 0.4 cm gap were added 8×10^6 cells and 10 μg of plasmid pCKR5 for expression of human CCR5, and electroporation was carried out under 0.25 kV of voltage and 960 μF of capacitance. The cells were transferred into Ham's F12 medium containing 10% fetal calf serum, and cultivated for 24 hours. The cells were again taken off and centrifuged, and suspended in Ham's F12 medium containing 10% fetal calf serum and 500 μg/ml of geneticin (Life Tech Oriental). The suspension was diluted to give 10^4 cells/ml of the suspension, which was inoculated on a 96 well plate (Becton Dickinson) to give geneticin resistant cells.
The resulting geneticin resistant cells were cultivated in 96 well plate (Becton Dickinson), and cells expressing CCR5 were selected from the geneticin resistant cells. That is, in assay buffer (Ham's F12 medium containing 0.5% BSA and 20 mM HEPES (Wako Pure Chemical, pH7.2)) to which was added 200 pM of [^125I]-RANTES (Amersham) as a ligand, a binding reaction was carried out at room temperature for 46 minutes, and the buffer was washed with cooled PBS. To the buffer was added 50 μl/well of 1M NaOH, and the mixture was stirred. Radioactivity was determined with a y-counter to select CCR5/CHO cells which specifically bind to the ligand.
The CCR5/CHO cells were inoculated on 96 well microplate (5×10^4 cells/well) and cultivated for 24 hours. The medium was removed by means of suction, and to each well was added an assay buffer containing Test Compound (1 μM) and then 100 pM of [^125I]-RANTES (Amersham) as a ligand. A binding assay was carried out at room temperature for 40 minutes, and an assay buffer was removed by means of suction. […]

Data set [2] deals with HIV-1 BA-L. In words: Inhibitory effect on HIV-1 infection to MAGI-CCR5 cell (β-galactosidase blue cell count). The format is cell-based. The note with it: 100 μl medium containing 1.6 μM of Test Compound + 100 μl medium containing 300 PFU of HIV-1 BA-L; MAGI-CCR5 cells; 37° C. for 2 days. The protocol: (5) Inhibitory Effect on HIV-1 Infection to MAGI-CCR5 Cell
The plasmid where β-galactosidase gene was ligated downstream of HIV-1 LTR was introduced into CD4 positive HeLa cell, to which human CCR5 was further introduced to obtain transformant MAGI-CCR5.
By using said transformant MAGI-CCR5, a degree of HIV-1 infection was calculated using β-galactosidase activity (blue color due to decomposition of 5-bromo-4-chloro-3-indolyl-β-D-galactopyranoside) as an index. Specifically, MAGI-CCR5 cells were suspended in DMEM medium containing 10% serum to prepare 5×10^4 cells/ml suspension. To each well of 96 well plate was inoculated 200 μl of the suspension, and the cells were cultivated at 37° C. overnight. The medium was removed by means of suction, and to the residue was added 100 μl of the above medium containing 1.6 μM of Test Compound and 100 μl of the above medium containing 300 PFU of HIV-1 BA-L cells. The cells were cultivated at 37° C. for 2 days. The medium was removed by means of suction. To the residue was added 200 μl of a cell fixative (PBS containing 1% formaldehyde and 0.2% glutaraldehyde), and the mixture was allowed to stand at room temperature for 5 minutes and washed twice with PBS. To the mixture was added 100 μl of staining solution (PBS containing […] and 0.4 mg/ml X-gal), and the mixture was allowed to stand at 37° C. for 50 minutes and washed twice with PBS. The number of blue cells was counted by a microscope and defined as the number of cells infected with HIV-1. According to this method, inhibition rate of HIV-1 infection was determined.

T1 sequence (P51681 whole entry): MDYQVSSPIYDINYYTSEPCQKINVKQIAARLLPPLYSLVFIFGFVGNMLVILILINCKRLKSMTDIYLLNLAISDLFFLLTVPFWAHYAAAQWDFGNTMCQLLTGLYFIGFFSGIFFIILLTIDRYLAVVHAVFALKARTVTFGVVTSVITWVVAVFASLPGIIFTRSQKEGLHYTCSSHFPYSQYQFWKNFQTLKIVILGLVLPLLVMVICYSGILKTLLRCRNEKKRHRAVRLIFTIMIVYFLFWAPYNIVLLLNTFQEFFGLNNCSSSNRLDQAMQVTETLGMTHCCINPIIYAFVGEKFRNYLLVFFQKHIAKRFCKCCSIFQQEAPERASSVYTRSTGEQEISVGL

`CCOCCOc1ccc(-c2ccc3c(c2)C=C(C(=O)Nc2ccc(CN(C)C4CCOCC4)cc2)CCN3C=O)cc1` [Compound 1, 7-[4-(2-ethoxyethoxy)phenyl]-1-formyl-N-[4-[[N-methyl-N-(tetrahydro-2H-pyran-4-yl)amino]methyl]phenyl]-2,3-dihydro-1H-1-benzazepine-4-carboxamide] registered a melting point of 192 to 194 °C. In addition, the inhibition at 1 µM in data set [1] was 93%. Moreover, the “Inhibitation Rate (%)” value in data set [2] is 85%.
The like results for `CC(C)OCCOc1ccc(-c2ccc3c(c2)C=C(C(=O)Nc2ccc(CN(C)C4CCOCC4)cc2)CCN3C=O)cc1` [Compound 14, 1-formyl-N-[4-[[N-methyl-N-(tetrahydro-2H-pyran-4-yl)amino]methyl]phenyl]-7-[4-(2-propoxy)ethoxyphenyl]-2,3-dihydro-1H-1-benzazepine-4-carboxamide] were, in that order, 187 to 189 °C, 96% and 91%.
Compound `CCOCCOc1ccc(-c2ccc3c(c2)C=C(C(=O)Nc2ccc(CN(C)C4CCOCC4)cc2)CCN3CC)cc1` [Compound 16, 7-[4-(2-ethoxyethoxy)phenyl]-1-ethyl-N-[4-[[N-methyl-N-(tetrahydro-2H-pyran-4-yl)amino]methyl]phenyl]-2,3-dihydro-1H-1-benzazepine-4-carboxamide] returned a melting point of 114.5 to 116.5 °C. Also, the inhibition at 1 µM in data set [1] was found to be 96%. Moreover, in data set [2], the “Inhibitation Rate (%)” value turned out to be 94%.
For the compound `CCCOCCOc1ccc(-c2ccc3c(c2)C=C(C(=O)Nc2ccc(CN(C)C4CCOCC4)cc2)CCN3CC)cc1` [Compound 17, 1-ethyl-N-[4-[[N-methyl-N-(tetrahydro-2H-pyran-4-yl)amino]methyl]phenyl]-7-[4-(2-propoxyethoxy)phenyl)-2,3-dihydro-1H-1-benzazepine-4-carboxamide], the melting point is 106 to 108 °C. Also, the inhibition at 1 µM in data set [1] was 99%. Also, the “Inhibitation Rate (%)” value in data set [2] is on record as 94%.
Compound `CCCCOCCOc1ccc(-c2ccc3c(c2)C=C(C(=O)Nc2ccc(CN(C)C4CCOCC4)cc2)CCN3Cc2ccccc2)cc1` [Compound 33, 1-benzyl-7-[4-(2-butoxyethoxy)phenyl]-N-[4-[[N-methyl-N-(tetrahydro-2H-pyran-4-yl)amino]methyl]phenyl]-2,3-dihydro-1H-1-benzazepine-4-carboxamide] yielded a melting point of 127 to 131 °C. For the same compound, the inhibition at 1 µM in data set [1] turned out to be 98%.
The like results for `CCCCOCCOc1ccc(-c2ccc3c(c2)C=C(C(=O)Nc2ccc(CN(C)C4CCOCC4)cc2)CCN3CC2CC2)cc1` [Compound 35, 7-[4-(2-butoxyethoxy)phenyl]-1-cyclopropylmethyl-N-[4-[[N-methyl-N-(tetrahydro-2H-pyran-4-yl)amino]methyl]phenyl]-2,3-dihydro-1H-1-benzazepine-4-carboxamide] were, in that order, 92 to 94 °C and 100%.
The like results for `CCCCOCCOc1ccc(-c2ccc3c(c2)C=C(C(=O)Nc2ccc(CN(C)C4CCOCC4)cc2)CCN3c2csc(C)n2)cc1` [Compound 45, 7-[4-(2-butoxyethoxy)phenyl]-1-(2-methylthiazol-4-yl)-N-[4-[[N-methyl-N-(tetrahydro-2H-pyran-4-yl)amino]methyl]phenyl]-2,3-dihydro-1H-1-benzazepine-4-carboxamide] were, in that order, 115 to 123 °C and 100%.
The like results for `C=CCN1CCC(C(=O)Nc2ccc(CN(C)C3CCOCC3)cc2)=Cc2cc(-c3ccc(OCCOCCC)cc3)ccc21` [Compound 49, 1-allyl-N-[4-[[N-methyl-N-(tetrahydropyran-4-yl)amino]methyl]phenyl]-7-(4-propoxyethoxyphenyl)-2,3-dihydro-1-benzazepine-4-carboxamide] were, in that order, 110 to 111 °C and 100%.
Consider `C=CCN1CCC(C(=O)Nc2ccc(CN(C)C3CCOCC3)cc2)=Cc2cc(-c3ccc(OCCOCCCC)cc3)ccc21` [Compound 50, 1-allyl-7-(4-butoxyethoxyphenyl)-N-[4-[[N-methyl-N-(tetrahydropyran-4-yl)amino]methyl]phenyl]-2,3-dihydro-1-benzazepine-4-carboxamide], for which the melting point was 103 to 104 °C. Further, the inhibition at 1 µM in data set [1] amounted to 100%.
The like results for `CCCCOCCOc1ccc(-c2ccc3c(c2)C=C(C(=O)Nc2ccc(CN(C)C4CCOCC4)cc2)CCN3Cc2ccsc2)cc1` [Compound 58, 7-(4-butoxyethoxyphenyl)-N-[4-[[N-methyl-N-(tetrahydropyran-4-yl)amino]methyl]phenyl]-1-(3-thienylmethyl)-2,3-dihydro-1-benzazepine-4-carboxamide] were, in that order, 122 to 123 °C and 99%.
The like results for `CCCCOCCOc1ccc(-c2ccc3c(c2)C=C(C(=O)Nc2ccc(CN(C)C4CCOCC4)cc2)CCN3Cc2nnnn2C)cc1` [Compound 101, 7-[4-(2-butoxyethoxy)phenyl]-N-[4-[N-methyl-N-(tetrahydropyran-4-yl)aminomethyl]phenyl]-1-(1-methyltetrazol-5-ylmethyl)-2,3-dihydro-1-benzazepine-4-carboxamide] were, in that order, 132 to 135 °C and 100%.
On to `CCCCOCCOc1ccc(-c2ccc3c(c2)C=C(C(=O)Nc2ccc(CN(C)C4CCOCC4)cc2)CCN3CCCOC)cc1` [Compound 104, 7-[4-(2-butoxyethoxy)phenyl]-1-(3-methoxypropyl)-N-[4-[[N-methyl-N-(tetrahydropyran-4-yl)amino]methyl]phenyl]-2,3-dihydro-1H-1-benzazepine-4-carboxamide], for which the melting point was in the range of 87 to 90 °C. Moreover, the inhibition at 1 µM in data set [1] turned out to be 98%.
